Columns and labels:
HDAC1 = HDAC1 (Homo sapiens, UniProt Q13547); assay: Measurement of biochemical activities of HDAC (fluorescently-labeled acetylated lysine substrate); details: read-out: IC50 HDAC1
Procedure: (§1) 1. Measurement principles: the measurement of biochemical activities of compounds is determined according to the degree of the compounds inhibiting the deacylation of HDAC enzyme. After the fluorescently-labeled substrate containing acetylated lysine side chain reacts with the HDAC enzyme, the fluorogenic substrate is deacetylated. After the deacetylated fluorescently-labeled substrate is cracked by the enzyme, a fluorescent substance is released. The fluorescent substance generates emitting light of 460 nm under the excitation of light of 360 nm.
(§2) 2. Detailed steps: the substrate of HDAC is diluted to […] (the reaction concentration is […]) with a reaction buffer. HDAC enzyme is diluted to a proper concentration. The compounds to be detected in different concentrations are added. The mixture reacts for 30 min at 37. Then the developer with the same volume and twice concentration of the substrate is added into the mixture. The mixture is incubated for 15 min at room temperature. Finally, the reading is measured with a micro plate scanner. The excitation light is 360 nm, the emitting light is 460 nm, and the data is processed with Prime 4 software.

HDAC7 = target: T1, HDAC7 (Homo sapiens, UniProt Q8WUI4); assay: as above
T1 sequence (Q8WUI4 1-952): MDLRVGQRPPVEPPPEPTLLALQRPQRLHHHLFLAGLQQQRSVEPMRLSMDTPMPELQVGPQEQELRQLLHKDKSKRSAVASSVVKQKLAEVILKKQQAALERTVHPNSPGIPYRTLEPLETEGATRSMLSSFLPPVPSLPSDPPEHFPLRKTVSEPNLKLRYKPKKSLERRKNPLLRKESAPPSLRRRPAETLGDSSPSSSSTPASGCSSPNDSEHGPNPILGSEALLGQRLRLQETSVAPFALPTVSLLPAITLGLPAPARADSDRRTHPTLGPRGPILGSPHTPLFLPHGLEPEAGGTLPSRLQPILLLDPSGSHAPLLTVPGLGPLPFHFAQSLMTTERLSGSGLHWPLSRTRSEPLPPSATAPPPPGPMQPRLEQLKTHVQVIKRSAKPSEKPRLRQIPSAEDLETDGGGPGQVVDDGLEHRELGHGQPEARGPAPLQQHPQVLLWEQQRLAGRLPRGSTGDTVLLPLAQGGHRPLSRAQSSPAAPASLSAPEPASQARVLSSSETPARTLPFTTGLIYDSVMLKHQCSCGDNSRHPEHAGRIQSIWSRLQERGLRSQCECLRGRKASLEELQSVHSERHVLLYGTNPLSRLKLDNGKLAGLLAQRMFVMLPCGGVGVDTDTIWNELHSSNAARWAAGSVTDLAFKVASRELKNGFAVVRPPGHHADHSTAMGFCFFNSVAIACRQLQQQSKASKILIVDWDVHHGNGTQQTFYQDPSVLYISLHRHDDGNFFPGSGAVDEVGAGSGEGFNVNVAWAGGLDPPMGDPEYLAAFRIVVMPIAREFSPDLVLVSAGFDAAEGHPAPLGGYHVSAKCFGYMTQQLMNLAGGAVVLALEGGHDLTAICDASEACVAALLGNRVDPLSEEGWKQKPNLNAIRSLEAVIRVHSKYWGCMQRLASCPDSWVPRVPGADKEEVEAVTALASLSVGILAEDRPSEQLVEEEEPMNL
Procedure: as §1, §2

[1] = tested on: A549 (human lung cancer cells); assay: MTT cancer cell growth inhibition; type: cell-based; details: 72 h
Excerpt: (§3) 1. Experimental principles: the inhibition of cancer cell growth with compounds is detected by an MTT method. The principle of the MTT method is as follows: yellow thiazolyl blue may penetrate through cell membranes and enter into cells, succinate dehydrogenase in living cell mitochondria may reduce exogenous MTT into water-insoluble ianthinus acicular Formazan crystals which deposit in the cells, the crystals can be dissolved with dimethyl sulfoxide (DMSO), the optical density of the crystals is detected with an enzyme-linked immunometric meter at the wavelength of 490 nm/570 nm, and the number of cells can be indirectly reflected.
(§4) 2. Experimental materials: the used cancer cell lines are Hela (human cervical cancer cells), MCF-7 (human breast cancer cells), BGC-823 (human gastric cancer cells), A549 (human lung cancer cells), HT1080 (human fibrosarcoma cells), A431 (human epidermal squamous cell carcinoma cells), HUVEC (human umbilical vein endothelial cells), DU145 (human prostate cancer cells), K562 (human leukemia cells), U937 (human leukemia cells), Pac-1 (human pancreatic cancer cells), and MOLT-4 (human acute lymphoblastic leukemia cells), which are cultured with a DMEM+10% FBS culture medium or a 1640+10% FBS culture medium, respectively.
(§5) Experimental groups: 190 μl cell suspension+10 μl pharmaceuticals in different concentrations (the final concentration is 10^−5-10^−10M)
(§6) Negative control group: 190 μl cell suspension+10 μl 2% DMSO (the final concentration of DMSO is 0.1%)
(§7) a) Cells are inoculated on a 96-pore plate, with 1500 cells and 190 μl for each hole, and cultured overnight in a 5% CO2 incubator at 37.
(§8) b) 10 μl of different pharmaceuticals is added into each hole the next day, with the final concentration of the pharmaceuticals of 10^−5-10^−10M and three parallel holes, and incubated for 72 h in a 5% CO2 incubator at 37.
(§9) c) 20 μl of 5 mg/mL MTT is added into each hole, and incubated for 4 h in a 5% CO2 incubator at 37.
(§10) d) Supernatant is removed. 100 μl of DMSO is added into each hole and vibrated.
(§11) e) The reading is 570 nm. The cell survival rate is calculated.

[2] = tested on: BGC-823 (human gastric cancer cells); assay: MTT cancer cell growth inhibition; type: cell-based; details: 72 h, read-out: GI50 BGC823
Excerpt: as §3, §4, §5, §6, §7, §8, §9, §10, §11

[3] = tested on: DU145 (human prostate cancer cells); assay: MTT cancer cell growth inhibition; type: cell-based; details: DU-145, 72 h
Excerpt: as §3, §4, §5, §6, §7, §8, §9, §10, §11

[4] = tested on: HT1080 (human fibrosarcoma cells); assay: MTT cancer cell growth inhibition; type: cell-based; details: HT-1080, 72 h
Excerpt: as §3, §4, §5, §6, §7, §8, §9, §10, §11

[5] = tested on: Hela (human cervical cancer cells); assay: MTT cancer cell growth inhibition; type: cell-based; details: 72 h
Excerpt: as §3, §4, §5, §6, §7, §8, §9, §10, §11

[6] = tested on: MCF-7 (human breast cancer cells); assay: MTT cancer cell growth inhibition; type: cell-based; details: MCF7, 72 h
Excerpt: as §3, §4, §5, §6, §7, §8, §9, §10, §11

[7] = tested on: MOLT-4 (human acute lymphoblastic leukemia cells); assay: MTT cancer cell growth inhibition; type: cell-based; details: 72 h
Excerpt: as §3, §4, §5, §6, §7, §8, §9, §10, §11

PANC-1 = assay: MTT cancer cell growth inhibition; type: cell-based; details: Homo sapiens, 72 h
Excerpt: as §3, §4, §5, §6, §7, §8, §9, §10, §11

[8] = tested on: U937 (human leukemia cells); assay: MTT cancer cell growth inhibition; type: cell-based; details: U-937, 72 h
Excerpt: as §3, §4, §5, §6, §7, §8, §9, §10, §11

Incap = assay: MTT cancer cell growth inhibition; type: cell-based; details: 72 h

Chain of HDAC1 (Q13547 whole entry, species assumed): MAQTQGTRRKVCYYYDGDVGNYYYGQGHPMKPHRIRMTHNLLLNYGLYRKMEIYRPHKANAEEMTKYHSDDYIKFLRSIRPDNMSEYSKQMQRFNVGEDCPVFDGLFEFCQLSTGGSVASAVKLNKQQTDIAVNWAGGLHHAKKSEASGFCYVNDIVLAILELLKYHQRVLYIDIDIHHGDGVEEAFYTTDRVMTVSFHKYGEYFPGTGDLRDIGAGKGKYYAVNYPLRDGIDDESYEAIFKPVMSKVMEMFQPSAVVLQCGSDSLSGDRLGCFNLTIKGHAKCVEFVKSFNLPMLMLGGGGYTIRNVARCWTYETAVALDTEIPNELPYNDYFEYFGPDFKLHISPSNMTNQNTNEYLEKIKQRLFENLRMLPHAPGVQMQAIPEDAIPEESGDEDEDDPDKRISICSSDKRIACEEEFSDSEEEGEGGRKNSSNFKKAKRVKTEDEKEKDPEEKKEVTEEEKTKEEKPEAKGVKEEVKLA

SMILES	IC50 (HDAC1)	IC50 HDAC7 (HDAC7)	GI50 [1]	GI50 [2]	GI50 [3]	GI50 [4]	GI50 [5]	GI50 [6]	GI50 [7]	GI50 (PANC-1)	GI50 [8]	GI50 (Incap)
C/C=C1\NC(=O)c2cccc(c2)CNC(=O)C[C@@H](/C=C/CCSC(=O)CCCCCCC)OC(=O)[C@H](C(C)C)NC1=O [Compound 2-6]	< 10000 nM	no activity	4200 nM	56200 nM	560 nM	12000 nM	500 nM	650 nM	64500 nM	45000 nM	12600 nM	11600 nM
C/C=C1\NC(=O)c2csc(n2)CNC(=O)C[C@@H](/C=C/CCSC(=O)CCCCCCC)OC(=O)[C@H](CSCC)NC1=O [Compound 1-12]	< 100 nM	no activity	1200 nM	60 nM	100 nM	1000 nM	900 nM	800 nM	100 nM	6000 nM	100 nM	300 nM
C/C=C1\NC(=O)c2csc(n2)CNC(=O)C[C@@H](/C=C/CCSC(=O)CCCCCCC)OC(=O)[C@H](CC(C)C)NC1=O [Compound 1-11]	< 100 nM	no activity	5090 nM	160 nM	6 nM	80 nM	100 nM	90 nM	10 nM	800 nM	9 nM	30 nM
C/C=C1\NC(=O)c2ccnc(c2)CNC(=O)C[C@@H](/C=C/CCSC(=O)CCCCCCC)OC(=O)[C@H](C(C)C)NC1=O [Compound 2-7]	< 10000 nM	no activity	90 nM	100 nM	6 nM	80 nM	100 nM	90 nM	2100 nM	800 nM	9 nM	650 nM
